According to ChEMBL document CHEMBL1201862, “PubChem BioAssay data set” (2004):
The source made the active and inactive calls.

Experiments:
[1] = Luminescence-based dose response cell-based high throughput screening assay for cytotoxic compounds using the IEC-6 intestinal epithelial cell line. [Related pubchem assays: 1858 (Summary AID.), 1825 (Counterscreen.), 1907 (Confirmation screen.)]; assay type: functional
[2] = target: Glutathione-S-transferase (Schistosoma japonicum, UniProt Q26513); assay: GST-antibody interaction or FRET quenching – biochemical, TR-FRET, artefact control for Vif-APOBEC3G degradation inhibitor project, dose response (AID 1117362); assay type: functional
[3] = target: T1, RNA-binding protein pos-1 (Caenorhabditis elegans, UniProt G5EF15); assay: disruptors of C. elegans POS-1 RNA interaction – biochemical, fluorescence polarization, dose response (AID 1964);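 note: purified POS-1 fused to maltose binding protein made in E. coli; potency of compounds blocking POS-1 binding to fluorescent RNA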
T1 sequence (G5EF15 whole entry): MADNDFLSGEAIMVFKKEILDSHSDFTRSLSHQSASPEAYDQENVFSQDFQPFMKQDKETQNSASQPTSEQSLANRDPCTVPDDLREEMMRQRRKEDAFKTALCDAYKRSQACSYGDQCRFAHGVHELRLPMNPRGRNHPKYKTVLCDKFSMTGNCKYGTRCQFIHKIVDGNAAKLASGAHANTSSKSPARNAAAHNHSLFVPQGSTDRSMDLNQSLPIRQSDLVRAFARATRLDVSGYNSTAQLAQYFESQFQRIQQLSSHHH

[4] = target: T2, Zinc finger protein mex-5 (Caenorhabditis elegans, UniProt Q9XUB2); assay: potency of MEX-5 RNA-binding blockers – biochemical, C. elegans, fluorescence polarization, dose response (AID 1960)
T2 sequence (Q9XUB2 whole entry): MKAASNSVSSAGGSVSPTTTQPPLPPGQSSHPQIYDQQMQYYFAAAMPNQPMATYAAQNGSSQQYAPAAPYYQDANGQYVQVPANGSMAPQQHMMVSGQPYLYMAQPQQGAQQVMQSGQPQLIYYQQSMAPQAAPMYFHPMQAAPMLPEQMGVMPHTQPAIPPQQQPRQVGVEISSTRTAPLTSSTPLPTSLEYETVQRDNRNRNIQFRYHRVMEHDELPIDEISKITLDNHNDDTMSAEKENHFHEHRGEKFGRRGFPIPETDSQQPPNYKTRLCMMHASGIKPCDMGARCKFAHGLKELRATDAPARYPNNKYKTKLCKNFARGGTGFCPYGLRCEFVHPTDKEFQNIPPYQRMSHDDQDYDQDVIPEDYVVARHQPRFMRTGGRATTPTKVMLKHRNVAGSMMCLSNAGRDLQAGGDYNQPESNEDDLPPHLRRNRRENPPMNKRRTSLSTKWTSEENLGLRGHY

[5] = target: T3, Polyadenylate-binding protein 1 (Homo sapiens, UniProt P11940); assay: MLLE domain peptide-binding blockers, IC50 – biochemical, fluorescence polarization, FITC-PAM2 peptide, dose response (AID 602259); assay type: functional; settings: read-out: IC50_Mean
[6] = target: T3, Polyadenylate-binding protein 1; assay: MLLE binding blockers, Cy5 peptide tracer – biochemical, fluorescence polarization, Cy5-PAM2 peptide, secondary, miRNA deadenylation inhibitor project, dose response (AID 602260); assay type: functional; settings: read-out: IC50_Mean
[7] = viability loss in THP-1 monocytes – THP-1 cells, cytotoxicity control for Vif-APOBEC3G degradation inhibitor project, dose response (AID 1117359); assay type: functional; settings: THP-1
[8] = target: T4, Histone-lysine N-methyltransferase NSD2 (Homo sapiens, UniProt O96028); assay type: biochemical
T4 sequence (O96028 whole entry): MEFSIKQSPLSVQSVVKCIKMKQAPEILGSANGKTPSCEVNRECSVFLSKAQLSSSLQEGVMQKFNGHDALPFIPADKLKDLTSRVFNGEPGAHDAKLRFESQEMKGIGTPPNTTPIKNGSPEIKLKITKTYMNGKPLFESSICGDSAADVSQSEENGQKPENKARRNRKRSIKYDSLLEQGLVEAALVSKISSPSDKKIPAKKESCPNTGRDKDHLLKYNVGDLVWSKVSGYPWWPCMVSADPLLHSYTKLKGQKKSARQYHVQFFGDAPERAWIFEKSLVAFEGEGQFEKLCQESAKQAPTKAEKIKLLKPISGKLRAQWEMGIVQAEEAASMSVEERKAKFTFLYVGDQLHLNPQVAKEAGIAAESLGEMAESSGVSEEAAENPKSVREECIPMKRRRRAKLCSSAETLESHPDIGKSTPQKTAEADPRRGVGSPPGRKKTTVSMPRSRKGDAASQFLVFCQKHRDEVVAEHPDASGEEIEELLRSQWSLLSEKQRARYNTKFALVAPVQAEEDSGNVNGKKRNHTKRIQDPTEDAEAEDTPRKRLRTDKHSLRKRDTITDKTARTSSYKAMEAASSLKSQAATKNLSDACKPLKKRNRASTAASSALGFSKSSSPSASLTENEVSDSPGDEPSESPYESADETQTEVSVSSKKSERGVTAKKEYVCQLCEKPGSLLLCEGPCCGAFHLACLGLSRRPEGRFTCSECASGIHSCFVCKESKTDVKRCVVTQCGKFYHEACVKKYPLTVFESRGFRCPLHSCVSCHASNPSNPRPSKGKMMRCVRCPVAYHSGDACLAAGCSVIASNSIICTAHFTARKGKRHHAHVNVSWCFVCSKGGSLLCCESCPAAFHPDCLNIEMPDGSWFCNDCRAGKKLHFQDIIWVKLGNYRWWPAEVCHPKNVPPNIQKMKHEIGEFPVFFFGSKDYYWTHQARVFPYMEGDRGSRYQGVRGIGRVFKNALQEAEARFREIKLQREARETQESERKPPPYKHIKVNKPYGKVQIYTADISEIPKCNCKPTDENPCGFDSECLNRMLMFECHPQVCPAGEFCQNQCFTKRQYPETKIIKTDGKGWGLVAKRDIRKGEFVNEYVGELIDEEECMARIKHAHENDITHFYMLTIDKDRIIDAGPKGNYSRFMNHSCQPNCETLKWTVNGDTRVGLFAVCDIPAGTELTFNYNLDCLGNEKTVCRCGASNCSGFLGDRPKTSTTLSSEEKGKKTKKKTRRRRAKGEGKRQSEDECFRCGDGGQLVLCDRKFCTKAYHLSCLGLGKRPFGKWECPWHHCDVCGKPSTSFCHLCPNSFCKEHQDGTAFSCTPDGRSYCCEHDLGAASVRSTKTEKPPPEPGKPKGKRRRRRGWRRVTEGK

[9] = M. tuberculosis H37Rv growth inhibitors, H37Rv strain (AID 1626); assay type: functional
[10] = target: Mannose-6-phosphate isomerase (Homo sapiens, UniProt P34949); assay: MPI inhibition at elevated mannose 6-phosphate – biochemical, fluorescence intensity, high mannose 6-phosphate, primary screen (AID 1220)
[11] = target: Voltage-gated inwardly rectifying potassium channel KCNH2 (Homo sapiens, UniProt Q12809); assay: concentration-dependent hERG rescue from blockers – cell-based, thallium flux, dose response (AID 2121); assay type: ADME
[12] = P. falciparum Dd2 growth inhibitors, dose response, SYBR Green, cherry-picked samples (AID 1159567); assay type: functional, cell-based
[13] = Dd2 malaria parasite growth inhibition potency – SYBR Green, dry powder samples, dose response (AID 1159566); assay type: functional, cell-based;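 note: potency for growth inhibition with lower SYBR green DNA signal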
[14] = growth inhibition of PfATP4-mutant resistant parasites – NITD609-resistant line, SYBR Green, dry powder, dose response (AID 1159571); assay type: functional, cell-based;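 note: parasites synchronized at ring stage by sorbitol before testing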
[15] = growth inhibition of yeast DHODH-expressing 3D7 parasites – SYBR Green, dry powder samples, dose response (AID 1159570); assay type: functional, cell-based;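 note: parasite growth measured after 72 hours of compound exposure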
Vero = assay: mammalian cell viability reduction – secondary assay, cytotoxicity control for West Nile virus antiviral project, dose response (AID 1650); assay type: functional; settings: Chlorocebus sabaeus
[16] = Dd2 parasite growth inhibition in erythrocytes – SYBR Green, dry powder samples, set 9, dose response (AID 1159568); assay type: functional, cell-based

Sequence of Voltage-gated inwardly rectifying potassium channel KCNH2 (Q12809 whole entry): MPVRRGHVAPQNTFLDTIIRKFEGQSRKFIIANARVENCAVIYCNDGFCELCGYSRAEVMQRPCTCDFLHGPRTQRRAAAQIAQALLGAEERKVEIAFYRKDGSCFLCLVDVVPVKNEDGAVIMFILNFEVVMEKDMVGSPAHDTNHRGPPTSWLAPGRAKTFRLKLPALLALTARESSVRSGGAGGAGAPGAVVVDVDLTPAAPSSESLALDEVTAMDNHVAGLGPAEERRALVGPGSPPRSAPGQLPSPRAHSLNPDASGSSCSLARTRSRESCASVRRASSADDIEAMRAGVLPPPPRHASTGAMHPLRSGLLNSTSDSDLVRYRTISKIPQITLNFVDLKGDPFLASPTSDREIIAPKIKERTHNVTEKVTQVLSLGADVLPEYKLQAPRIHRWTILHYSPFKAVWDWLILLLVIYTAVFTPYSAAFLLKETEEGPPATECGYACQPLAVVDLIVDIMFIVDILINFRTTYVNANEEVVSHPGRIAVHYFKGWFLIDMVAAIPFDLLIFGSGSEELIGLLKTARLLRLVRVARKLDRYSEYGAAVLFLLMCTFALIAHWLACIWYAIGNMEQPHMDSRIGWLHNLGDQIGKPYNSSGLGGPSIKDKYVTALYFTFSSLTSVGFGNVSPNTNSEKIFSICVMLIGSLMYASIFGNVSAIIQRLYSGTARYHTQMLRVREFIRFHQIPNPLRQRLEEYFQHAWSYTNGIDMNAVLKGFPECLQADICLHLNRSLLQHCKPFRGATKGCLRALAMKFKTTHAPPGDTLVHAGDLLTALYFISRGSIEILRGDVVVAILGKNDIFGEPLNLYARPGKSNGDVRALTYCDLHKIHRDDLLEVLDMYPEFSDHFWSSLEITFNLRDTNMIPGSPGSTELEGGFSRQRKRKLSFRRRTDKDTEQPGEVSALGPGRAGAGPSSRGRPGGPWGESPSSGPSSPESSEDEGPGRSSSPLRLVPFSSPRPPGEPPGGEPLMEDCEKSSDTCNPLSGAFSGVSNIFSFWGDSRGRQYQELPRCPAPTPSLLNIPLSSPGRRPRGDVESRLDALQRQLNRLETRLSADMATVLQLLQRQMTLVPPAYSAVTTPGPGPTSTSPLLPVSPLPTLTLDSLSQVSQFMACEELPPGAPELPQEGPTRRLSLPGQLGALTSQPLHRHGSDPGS
Sequence of Glutathione-S-transferase (Q26513 whole entry, the tested form may be a part): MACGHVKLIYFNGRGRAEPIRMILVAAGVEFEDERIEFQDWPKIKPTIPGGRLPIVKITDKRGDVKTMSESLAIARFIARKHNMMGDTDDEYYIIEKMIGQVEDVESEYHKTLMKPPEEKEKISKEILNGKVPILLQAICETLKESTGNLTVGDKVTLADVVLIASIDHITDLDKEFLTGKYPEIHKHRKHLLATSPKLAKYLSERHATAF
T3 sequence (P11940 whole entry, the tested form may be a part): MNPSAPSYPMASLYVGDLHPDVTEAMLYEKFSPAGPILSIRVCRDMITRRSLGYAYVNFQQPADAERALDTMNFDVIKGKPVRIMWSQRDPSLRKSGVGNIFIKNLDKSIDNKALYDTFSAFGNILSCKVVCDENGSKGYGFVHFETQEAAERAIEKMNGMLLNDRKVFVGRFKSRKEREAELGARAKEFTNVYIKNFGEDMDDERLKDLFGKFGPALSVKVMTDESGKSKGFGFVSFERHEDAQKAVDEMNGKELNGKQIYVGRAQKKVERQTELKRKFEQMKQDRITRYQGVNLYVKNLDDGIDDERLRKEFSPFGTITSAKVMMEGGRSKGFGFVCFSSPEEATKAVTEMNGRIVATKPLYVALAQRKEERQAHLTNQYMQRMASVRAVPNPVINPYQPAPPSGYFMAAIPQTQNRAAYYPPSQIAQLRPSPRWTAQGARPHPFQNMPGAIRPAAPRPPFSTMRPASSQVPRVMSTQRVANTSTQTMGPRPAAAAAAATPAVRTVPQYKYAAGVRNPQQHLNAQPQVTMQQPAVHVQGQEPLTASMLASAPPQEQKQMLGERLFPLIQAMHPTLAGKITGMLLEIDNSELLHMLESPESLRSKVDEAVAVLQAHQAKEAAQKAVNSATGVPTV
Sequence of Mannose-6-phosphate isomerase (P34949 whole entry): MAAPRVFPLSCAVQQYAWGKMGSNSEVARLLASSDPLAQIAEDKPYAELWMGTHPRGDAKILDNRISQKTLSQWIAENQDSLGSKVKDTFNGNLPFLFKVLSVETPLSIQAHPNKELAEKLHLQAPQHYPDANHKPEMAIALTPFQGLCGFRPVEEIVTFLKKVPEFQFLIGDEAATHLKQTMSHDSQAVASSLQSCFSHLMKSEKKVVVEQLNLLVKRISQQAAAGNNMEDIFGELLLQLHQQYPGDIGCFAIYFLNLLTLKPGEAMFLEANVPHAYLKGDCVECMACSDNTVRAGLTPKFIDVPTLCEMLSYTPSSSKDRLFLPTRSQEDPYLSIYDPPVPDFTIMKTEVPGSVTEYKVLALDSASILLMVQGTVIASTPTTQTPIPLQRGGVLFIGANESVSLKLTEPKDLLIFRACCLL

## C=C1[C@@H](C)[C@H]2[C@H](Cc3ccccc3)NC(=O)[C@]23OC(=O)/C=C/[C@H](O)CCC[C@@H](C)C/C=C/[C@H]3[C@@H]1O [CYTOCHALASIN B]
[1]
  IC50: 0.424 µM (active)

## CCn1c(C)cc(=S)c2ccccc21
[2]
  IC50: > 100 µM (active)
[3]
  EC50: > 300 µM (not active)
[4]
  EC50: > 300 µM (not active)
[5]
  IC50: > 66 µM (inactive)
[6]
  IC50: > 66 µM (inactive)
[7]
  CC50: > 40 µM (active)
[8]
  AC50: 17 µM (active)

## COc1ccc(NC(C#N)c2ccc(OC)cc2)cc1 (stereo not given)
[9]
  IC50: > 100 µM (active)

## COc1ccc(NC(=O)N2c3ccc(OC)cc3C(C)=CC2(C)C)cc1
[2]
  IC50: > 100 µM (active)
[10]
  IC50: > 50 µM (not active)
[7]
  CC50: > 40 µM (active)

## CNC(=O)c1ccc(NC(=O)CN2c3cccc4cccc(c34)S2(=O)=O)cc1
[11]
  EC50: 7.62 µM (active)

## COc1ccc2c3c(n(C)c2c1)[C@@H](CO)N(C(=O)c1ccc(F)cc1)CC31CN(C(=O)Nc2ccc(F)cc2)C1
[12]
  AC50: 1.79 µM (active)
[13]
  AC50: 1.22 µM (active)
[14]
  AC50: 0.999 µM (active)
[15]
  AC50: 1.26 µM (active)

## Cc1ccc(C(OCC(O)CNC(C)c2ccccc2)c2ccccc2)cc1 (stereo not given)
Vero
  CC50: 18.9 µM (active)

## CCOc1ccccc1NC(=S)NC(=O)c1ccco1
[11]
  EC50: 1.25 µM (active)

## N#C[C@@H]1[C@H](c2ccccc2)[C@H](CO)N1C(=O)Nc1cccc(F)c1
[16]
  AC50: 0.968 µM (active)
